# Test results: article PMC9178010, “Identification and characterization of a prokaryotic 6-4 photolyase from Synechococcus elongatus with a deazariboflavin antenna chromophore” (Nucleic Acids Research, 2022)
# How the values were obtained:
# Format in all cases: binding
# SePhrA (SePhrA[ScFbiC]) [1] = target: T1, SePhrA (SePhrA[ScFbiC]) (Synechococcus elongatus, UniProt Q31S25); assay: co-purified cofactor; absorption, fluorescence and TLC of denatured protein; conditions: antenna chromophore; co-expressed with S. coelicolor FO synthase FbiC
# T1 construct: gene Synpcc7942_0112; full-length gene in pET22b, E. coli BL21(DE3), co-expressed with S. coelicolor FbiC; Ni-NTA and Superdex 200
# T1 sequence (Q31S25 1-484): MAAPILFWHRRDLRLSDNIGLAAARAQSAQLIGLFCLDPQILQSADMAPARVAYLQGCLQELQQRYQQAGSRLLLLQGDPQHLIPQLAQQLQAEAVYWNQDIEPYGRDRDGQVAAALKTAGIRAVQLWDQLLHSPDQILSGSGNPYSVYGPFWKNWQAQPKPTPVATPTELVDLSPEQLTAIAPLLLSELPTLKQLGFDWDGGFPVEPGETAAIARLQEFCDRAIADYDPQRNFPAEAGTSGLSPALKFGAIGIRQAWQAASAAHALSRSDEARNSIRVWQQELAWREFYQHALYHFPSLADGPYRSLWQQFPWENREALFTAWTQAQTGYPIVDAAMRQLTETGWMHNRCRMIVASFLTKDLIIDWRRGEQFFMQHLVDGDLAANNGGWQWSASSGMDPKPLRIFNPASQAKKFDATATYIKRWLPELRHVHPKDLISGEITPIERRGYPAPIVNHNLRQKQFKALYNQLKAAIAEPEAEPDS
# [2] = target: T2, SePhrB (SePhrB[Ec]; SePhrB[ScFbiC]; SePhrB[8-HDF]) (Synechococcus elongatus, UniProt Q31P18); assay: as above
# T2 construct: gene Synpcc7942_1171; full-length gene in pET22b, E. coli BL21(DE3), Ni-NTA and Superdex 200; iron-sulfur cluster protein; expressed alone or with S. coelicolor FbiC
# T2 sequence (Q31P18 1-503): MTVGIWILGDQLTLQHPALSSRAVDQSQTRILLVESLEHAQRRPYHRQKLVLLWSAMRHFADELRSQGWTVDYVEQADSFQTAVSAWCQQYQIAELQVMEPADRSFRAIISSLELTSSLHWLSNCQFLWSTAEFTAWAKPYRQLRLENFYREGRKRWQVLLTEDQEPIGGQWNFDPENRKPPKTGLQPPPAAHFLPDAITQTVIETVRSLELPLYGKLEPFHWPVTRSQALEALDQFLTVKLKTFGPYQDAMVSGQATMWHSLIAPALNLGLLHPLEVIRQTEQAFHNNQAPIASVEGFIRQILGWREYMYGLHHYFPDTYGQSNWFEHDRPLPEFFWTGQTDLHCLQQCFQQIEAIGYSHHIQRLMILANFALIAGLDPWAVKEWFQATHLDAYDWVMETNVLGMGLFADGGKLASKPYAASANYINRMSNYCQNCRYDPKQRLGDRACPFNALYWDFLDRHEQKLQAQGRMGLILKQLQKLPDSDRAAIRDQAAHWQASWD
# AfPhrB = target: T3, AfPhrB (Agrobacterium fabrum, UniProt A9CH39); assay: as above; conditions: co-purified from E. coli
# T3 construct: gene phrB; synthetic phrB gene in pET22b, E. coli BL21(DE3), Ni-NTA and Superdex 200
# T3 sequence (A9CH39 whole entry): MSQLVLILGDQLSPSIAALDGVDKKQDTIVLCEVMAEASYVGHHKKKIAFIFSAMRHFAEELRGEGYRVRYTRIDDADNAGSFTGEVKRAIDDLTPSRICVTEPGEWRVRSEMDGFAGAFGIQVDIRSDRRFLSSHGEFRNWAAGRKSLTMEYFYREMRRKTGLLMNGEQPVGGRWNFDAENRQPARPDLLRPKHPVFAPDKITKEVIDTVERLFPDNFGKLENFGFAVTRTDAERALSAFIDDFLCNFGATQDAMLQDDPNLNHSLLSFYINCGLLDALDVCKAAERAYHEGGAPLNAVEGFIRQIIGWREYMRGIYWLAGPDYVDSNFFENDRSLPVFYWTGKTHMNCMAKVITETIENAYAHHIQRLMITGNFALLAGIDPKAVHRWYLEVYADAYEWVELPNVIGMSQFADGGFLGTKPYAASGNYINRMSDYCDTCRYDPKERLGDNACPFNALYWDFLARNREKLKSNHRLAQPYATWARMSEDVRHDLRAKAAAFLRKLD
# SePhrA (SePhrA[ScFbiC]) [3] = target: T1, SePhrA (SePhrA[ScFbiC]); assay: TLC of denatured protein supernatant; conditions: catalytic cofactor; co-expressed with S. coelicolor FO synthase FbiC
smiles,measurement,setting,value
"O=c1nc2n(C[C@H](O)[C@H](O)[C@H](O)CO)c3cc(O)ccc3cc-2c(=O)[nH]1 [8-HDF, 7,8-didemethyl-8-hydroxy-5-deazariboflavin]","co-purified cofactor; absorption, fluorescence and TLC of denatured protein",SePhrA (SePhrA[ScFbiC]) [1],an additional bright blue band that was attributed to 8-HDF
same,"co-purified cofactor; absorption, fluorescence and TLC of denatured protein","[2]; antenna chromophore, co-expressed with S. coelicolor FO synthase FbiC",SePhrB associates with FAD and 8-HDF when co-expressed with the ScFbiC
"Cc1nc2c(=O)[nH]c(=O)nc-2n(C[C@H](O)[C@H](O)[C@H](O)CO)c1C [DMRL, 6,7-dimethyl-8-ribityllumazine]","co-purified cofactor; absorption, fluorescence and TLC of denatured protein",AfPhrB; antenna chromophore,"a yellow fluorescent band of FAD, and a blue-green fluorescent band of DMRL"
Cc1cc2nc3c(=O)[nH]c(=O)nc-3n(C[C@H](O)[C@H](O)[C@H](O)COP(=O)(O)OP(=O)(O)OC[C@H]3O[C@@H](n4cnc5c(N)ncnc54)[C@H](O)[C@@H]3O)c2cc1C [FAD],"co-purified cofactor; absorption, fluorescence and TLC of denatured protein","[2]; catalytic cofactor, expressed in E. coli without FbiC, fully oxidized as purified",SePhrB[Ec] gave only one yellow fluorescent band with the same Rf value of authentic FAD
same,"co-purified cofactor; absorption, fluorescence and TLC of denatured protein",AfPhrB; catalytic cofactor,the supernatant of AfphrB produced a yellow fluorescent band of FAD
same,TLC of denatured protein supernatant,SePhrA (SePhrA[ScFbiC]) [3],each of them had a yellow FAD band
